Values joined by “and” are separate entries in the source; they are usually repeats but may differ in a detail not shown here. Equal values may be shown once. Read-outs that look alike come from different tables or passages of the source.
Legend:
[1] = system: p-sites in DNA-damaged AsPC-1 cells; test: decryptM dose-resolved phosphoproteomics of ATRi in GEM-pre-treated cells; type: cell-based, human; conditions: for EC50: Homo sapiens, ASPC1
Method: Cell culture medium was replaced 24 h after seeding. […] For time point 0, AsPC-1 cells were treated with a vehicle and lysed immediately. The final DMSO concentration in all experiments was 0.2%.
Briefly, cells were washed twice with PBS and lysed in SDS lysis buffer (2% SDS in 40 mM Tris-HCl, pH 7.6), followed by sonication for 10 min (30 s on/30 s off) using a Bioruptor (Diagenode). For DNA hydrolysis, samples were boiled at 95 °C for 10 min and incubated with 2% trifluoroacetic acid (TFA) for 1 min, before the reaction was quenched using 4% N-methylmorpholine. Lysate was cleared by centrifugation at 11,000 × g for 5 min and protein concentration was determined using the Pierce BCA Protein Assay Kit (Thermo Scientific).
Using 70% ethanol, samples were then precipitated on beads, followed by washing thrice with 80% ethanol and once with 100% acetonitrile. Subsequently, proteins were reduced and alkylated using 10 mM TCEP, 50 mM chloroacetamide, and 2 mM CaCl2 in 100 mM EPPS/NaOH, pH 8.5 for 1 h at 37 °C, followed by tryptic digestion at 37 °C for 16 h. Peptides were acidified with 1% TFA and desalted on Chromabond HLB plates (30 µm particle size, 10 mg capacity, Machery-Nagel), using 0.1% TFA for equilibration and sample loading, and 0.1% TFA in 70% acetonitrile for peptide elution. Recovered peptides were freeze-dried by vacuum-centrifugation and stored at −20 °C.
Depending on the experiment, samples were either labeled with TMT-11plex (decryptM), TMT-10plex (non-decryptM, quadruplicates), or TMTpro reagent (time-series; all Thermo Scientific). Therefore, dried peptides were reconstituted in 15 µl 100 mM EPPS, pH 8.5 and each treatment condition was labeled with one channel of the respective TMT reagent (5 µl of 25 µg/µl reagent, Appendix Tables S4–S6). The reaction was incubated for 1 h at 23 °C and subsequently quenched with 0.4% hydroxylamine. Then, samples were pooled, acidified with 1% formic acid, and freeze-dried by vacuum-centrifugation. Labeled peptide pools were desalted on C18 Sep-Pak cartridges (37–55 µm particle size, 50 mg capacity, Waters), using 0.1% formic acid as equilibration solvent, and 0.1% formic acid in 60% acetonitrile was used as elution solvent. Eluted peptides were freeze-dried and stored at −20 °C until further use.
Basic reversed-phase (bRP) fractionation of peptides was performed on a Vanquish HPLC (Thermo Scientific). In short, dried peptides were reconstituted in 200 µl 25 mM ammonium bicarbonate, pH 8.0 and directly injected onto a Waters BEH130 XBridge C18 column (3.5 µm, 4.6 × 250 mm). […] Using an automated fraction collector, 96 fractions were collected between min 7 and 55 after injection. Fractions were acidified with 1% formic acid and pooled to 48 fractions, before they were freeze-dried and stored at −20 °C.
Immobilized metal ion affinity chromatography (IMAC) enrichment of phosphorylated peptides was performed on the Bravo automated liquid handling platform using AssayMAP Fe(III)-NTA cartridges (Agilent). In brief, the 48 dried peptide fractions were reconstituted in 0.1% TFA in 80% acetonitrile and further pooled to 12 fractions (200 µl final volume per well). The phosphopeptide enrichment protocol embedded in the Agilent AssayMAP Bravo Protein Sample Prep Workbench v2.0 software was run. Thereby, the cartridges were first primed with 150 μl 0.1% TFA in acetonitrile at 300 μl/min, and equilibrated with 150 μl 0.1% TFA in 80% acetonitrile at 10 μl/min. Then, pooled fractions were loaded at 5 µl/min and further washed three times with 150 μl 0.1% TFA in 80% acetonitrile at 50 μl/min. Enriched peptides were eluted with 60 μl 1% ammonium hydroxide at 5 μl/min.

PANC-1 cells = test: Cell proliferation assay, GEM + ATR inhibitor (Incucyte confluence, 72 h); conditions: for EC50: Homo sapiens, mean of replicates; for Curve top: PANC-1, plateau of fitted curve, ratio drug/vehicle confluence;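 for EC50: in combination experiments GEM is titrated while ATRi is held at a fixed sub-EC50 dose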;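 for all read-outs here: PANC-1 confluence at 72 h taken as raw values, not normalized to starting confluence, with each experiment run in triplicate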
Method: Cells were seeded at 5000 cells/well into 96-well flat bottom plates (Eppendorf) and allowed to attach overnight. […] Cells were incubated for 72 h at 37 °C and 5% CO2. Cell confluence readouts at 72 h were either normalized to their initial confluence using the Incucyte software (AsPC-1) or used without prior normalization (all others). […] Each experiment was performed in triplicates, the data was plotted as mean ± standard deviation (s.d.).

SMILES: C[C@@H]1COCCN1c1cc(C2([S@](C)(=N)=O)CC2)nc(-c2cc[nH]c3nccc2-3)n1 [Ceralasertib]
- Log2 PTM response (GEM+ATRi vs. GEM) ([1]; AASDHPPT-pS258): -0.9
- Log2 PTM response (GEM+ATRi vs. GEM) ([1]; BRCA1-pS1239): -1.1
- Log2 PTM response (GEM+ATRi vs. GEM) ([1]; BRD8-pS621): -1.7
- Log2 PTM response (GEM+ATRi vs. GEM) ([1]; CDKN2AIP-pS198): -1.6
- Log2 PTM response (GEM+ATRi vs. GEM) ([1]; CHEK1-pS317): -2
- Log2 PTM response (GEM+ATRi vs. GEM) ([1]; CHEK1-pS468): -3.8
- Log2 PTM response (GEM+ATRi vs. GEM) ([1]; DHX9-pS321): -1.6
- Log2 PTM response (GEM+ATRi vs. GEM) ([1]; EXO1-pS714): -0.7
- Log2 PTM response (GEM+ATRi vs. GEM) ([1]; FANCD2-pS319): -1.3
- Log2 PTM response (GEM+ATRi vs. GEM) ([1]; HDGF-pS103): -1.4
- Log2 PTM response (GEM+ATRi vs. GEM) ([1]; HMGA1-pS9): -2
- Log2 PTM response (GEM+ATRi vs. GEM) ([1]; HMGA1-pS36;S44): -1.5
- Log2 PTM response (GEM+ATRi vs. GEM) ([1]; HMGA1-pS44): -1.7
- Log2 PTM response (GEM+ATRi vs. GEM) ([1]; HSPA4-pS552): -1.1
- Log2 PTM response (GEM+ATRi vs. GEM) ([1]; HTATSF1-pS481): -0.6
- EC50 ([1]; approximate, from density plot Fig. 4C (peer review file), read-out: EC50 of the majority of pSQ/pTQ sites): ~100 nM
- EC50 ([1]; approximate, from density plot Fig. 4C (peer review file), read-out: pEC50 of the majority of pSQ/pTQ sites (converted)): ~100 nM
- EC50 ([1]; p-site dose-response in GEM-pre-treated cells, read-out: EC50, RALY S176): 151 nM
- EC50 ([1]; p-site dose-response in GEM-pre-treated cells, read-out: pEC50, RALY S176 (converted)): 151 nM
- EC50 ([1]; read-out: median EC50 across all drug-regulated pSQ/pTQ-sites): 154 nM
- Log2 PTM response (GEM+ATRi vs. GEM) ([1]; LRRC42-pS385): -2.5
- Log2 PTM response (GEM+ATRi vs. GEM) ([1]; NBN-pS397): -1.2
- Log2 PTM response (GEM+ATRi vs. GEM) ([1]; NBN-pS615): -0.5
- Log2 PTM response (GEM+ATRi vs. GEM) ([1]; NSUN5-pS432): -3
- Log2 PTM response (GEM+ATRi vs. GEM) ([1]; PELP1-pS1033): -1.3
- Log2 PTM response (GEM+ATRi vs. GEM) ([1]; PHF14-pS294): -1.2
- Log2 PTM response (GEM+ATRi vs. GEM) ([1]; PPM1G-pS201): -1.9
- Log2 PTM response (GEM+ATRi vs. GEM) ([1]; PPP6R3-pS825): -1.6
- Log2 PTM response (GEM+ATRi vs. GEM) ([1]; PSMD4-pS266): -1.3
- Log2 PTM response (GEM+ATRi vs. GEM) ([1]; RAD18-pS368): -1.2
- Log2 PTM response (GEM+ATRi vs. GEM) ([1]; RIF1-pS1873): -0.6
- Log2 PTM response (GEM+ATRi vs. GEM) ([1]; SNRPA-pS115): -1.4
- Log2 PTM response (GEM+ATRi vs. GEM) ([1]; TCEA1-pS100;S97): -2.1
- Log2 PTM response (GEM+ATRi vs. GEM) ([1]; TCEB3-pS251): -1.6
- Log2 PTM response (GEM+ATRi vs. GEM) ([1]; THAP4-pS186): -1.4
- Log2 PTM response (GEM+ATRi vs. GEM) ([1]; TOPBP1-pS1504): -1.5
- Log2 PTM response (GEM+ATRi vs. GEM) ([1]; TSEN34-pS136): -1.1
- Log2 PTM response (GEM+ATRi vs. GEM) ([1]; UHRF1-pS393): -1.4
- Log2 PTM response (GEM+ATRi vs. GEM) ([1]; UIMC1-pS171): -2.1
- Log2 PTM response (GEM+ATRi vs. GEM) ([1]; ZC3H14-pS135): -1.3
- ATRi Regulation (Curve), RALY S176 ([1]; classified by CurveCurator): down
- PTM response (norm. to 1 µM GEM) ([1]; source data 4B (p-site not named), 1 µM GEM + ATRi 1 nM): 1.20
- PTM response (norm. to 1 µM GEM) ([1]; source data 4B (p-site not named), 1 µM GEM + ATRi 3 nM): 0.93
- PTM response (norm. to 1 µM GEM) ([1]; source data 4B (p-site not named), 1 µM GEM + ATRi 30 nM): 0.96
- PTM response (norm. to 1 µM GEM) ([1]; source data 4B (p-site not named), 1 µM GEM + ATRi 100 nM): 0.97
- PTM response (norm. to 1 µM GEM) ([1]; source data 4B (p-site not named), 1 µM GEM + ATRi 300 nM): 0.85
- PTM response (norm. to 1 µM GEM) ([1]; source data 4B (p-site not named), 1 µM GEM + ATRi 1000 nM): 0.52
- PTM response (norm. to 1 µM GEM) ([1]; source data 4B (p-site not named), 1 µM GEM + ATRi 3000 nM): 0.35
- PTM response (norm. to 1 µM GEM) ([1]; source data 4B (p-site not named), 1 µM GEM + ATRi 10000 nM): 0.27
- PTM response (norm. to 1 µM GEM) ([1]; source data 5B (p-site not named), 1 µM GEM + ATRi 3 nM): 0.78
- PTM response (norm. to 1 µM GEM) ([1]; source data 5B (p-site not named), 1 µM GEM + ATRi 10 nM): 0.81
- PTM response (norm. to 1 µM GEM) ([1]; source data 5B (p-site not named), 1 µM GEM + ATRi 30 nM): 0.67
- PTM response (norm. to 1 µM GEM) ([1]; source data 5B (p-site not named), 1 µM GEM + ATRi 100 nM): 0.51
- PTM response (norm. to 1 µM GEM) ([1]; source data 5B (p-site not named), 1 µM GEM + ATRi 300 nM): 0.34
- PTM response (norm. to 1 µM GEM) ([1]; source data 5B (p-site not named), 1 µM GEM + ATRi 1000 nM): 0.16
- PTM response (norm. to 1 µM GEM) ([1]; source data 5B (p-site not named), 1 µM GEM + ATRi 3000 nM): 0.11
- PTM response (norm. to 1 µM GEM) ([1]; source data 5B (p-site not named), 1 µM GEM + ATRi 10000 nM): 0.09
- EC50 (PANC-1 cells; PANC-1, 72 h, read-out: EC50 mean [nM], PANC-1, experiment ATRi (ATR inhibitor alone)): 10500 nM
- EC50 (PANC-1 cells; PANC-1, read-out: EC50 mean [nM], PANC-1, experiment ATRi (ATR inhibitor alone)): 10500 nM
- EC50 (PANC-1 cells; PANC-1, read-out: EC50 mean [nM], PANC-1, experiment GEM+ATRi_dose1): 12 nM
- EC50 (PANC-1 cells; PANC-1, read-out: EC50 mean [nM], PANC-1, experiment GEM+ATRi_dose2): 22 nM
- EC50 (PANC-1 cells; PANC-1, read-out: EC50 mean [nM], PANC-1, experiment GEM+ATRi_dose3): 14.5 nM
- Curve top (PANC-1 cells; experiment GEM+ATRi_dose1): 0.75 and 0.55 and 0.69
- Curve top (PANC-1 cells; experiment GEM+ATRi_dose2): 0.69 and 0.59 and 0.62
- Curve top (PANC-1 cells; experiment GEM+ATRi_dose3): 0.55 and 0.43 and 0.50

— article PMC11876601 (Molecular Systems Biology, 2025)
